Assay results reported in article doi:10.1101/208439v1 (biorxiv, 2017).
Like-named read-outs stand apart in the source and are kept apart here.

Legend:
NSD2 = target: T1, NSD2 (Homo sapiens, UniProt O96028, T1150A); assay: HotSpot [3H]SAM filter-binding methyltransferase assay; assay type: biochemical
T1 construct: full length (residues 2-1365), N-terminal His tag, insect cell/baculovirus
T1 sequence (O96028 2-1365 T1150A): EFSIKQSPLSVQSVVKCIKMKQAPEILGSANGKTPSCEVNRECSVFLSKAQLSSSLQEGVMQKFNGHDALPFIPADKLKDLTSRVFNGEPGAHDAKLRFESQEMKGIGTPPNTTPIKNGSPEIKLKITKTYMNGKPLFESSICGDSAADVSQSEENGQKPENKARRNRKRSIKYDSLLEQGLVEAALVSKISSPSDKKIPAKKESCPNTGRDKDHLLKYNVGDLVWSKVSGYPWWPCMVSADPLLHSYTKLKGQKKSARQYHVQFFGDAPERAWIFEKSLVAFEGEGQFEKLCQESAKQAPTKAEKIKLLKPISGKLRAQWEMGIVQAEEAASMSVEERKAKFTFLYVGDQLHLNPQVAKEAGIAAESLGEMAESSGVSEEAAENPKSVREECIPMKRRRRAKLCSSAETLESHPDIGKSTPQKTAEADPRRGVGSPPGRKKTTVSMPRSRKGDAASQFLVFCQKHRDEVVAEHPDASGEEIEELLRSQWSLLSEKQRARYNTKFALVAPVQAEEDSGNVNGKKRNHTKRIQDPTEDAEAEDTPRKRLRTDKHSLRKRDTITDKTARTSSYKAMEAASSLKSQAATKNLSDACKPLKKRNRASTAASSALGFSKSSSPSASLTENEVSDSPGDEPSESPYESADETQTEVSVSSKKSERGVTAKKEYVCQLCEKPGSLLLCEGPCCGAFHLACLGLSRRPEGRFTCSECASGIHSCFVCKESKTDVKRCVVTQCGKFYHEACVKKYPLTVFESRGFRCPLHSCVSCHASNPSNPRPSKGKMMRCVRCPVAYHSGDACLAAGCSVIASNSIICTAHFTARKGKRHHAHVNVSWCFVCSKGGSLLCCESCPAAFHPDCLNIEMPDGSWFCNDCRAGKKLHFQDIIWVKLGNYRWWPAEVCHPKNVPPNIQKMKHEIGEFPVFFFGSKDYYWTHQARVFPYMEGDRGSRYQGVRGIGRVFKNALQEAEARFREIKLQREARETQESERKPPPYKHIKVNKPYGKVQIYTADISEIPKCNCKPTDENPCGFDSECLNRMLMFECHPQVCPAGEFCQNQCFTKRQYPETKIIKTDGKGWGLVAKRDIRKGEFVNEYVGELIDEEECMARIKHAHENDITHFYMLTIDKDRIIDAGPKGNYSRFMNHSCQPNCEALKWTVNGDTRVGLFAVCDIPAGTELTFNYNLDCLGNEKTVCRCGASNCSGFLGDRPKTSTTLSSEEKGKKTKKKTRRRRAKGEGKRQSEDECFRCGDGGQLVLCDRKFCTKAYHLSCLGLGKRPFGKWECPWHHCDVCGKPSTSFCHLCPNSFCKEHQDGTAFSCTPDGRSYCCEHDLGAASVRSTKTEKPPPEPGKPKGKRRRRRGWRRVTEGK

NSD3 = target: T2, NSD3 (Homo sapiens, UniProt Q9BZ95); assay: as above; assay type: biochemical; parameters: residues 1021-1322, GST fusion, E. coli; details: nucleosomes, […] SAM, Bicine pH […] DTT, […] °C, single experiment
T2 sequence (Q9BZ95 1021-1322): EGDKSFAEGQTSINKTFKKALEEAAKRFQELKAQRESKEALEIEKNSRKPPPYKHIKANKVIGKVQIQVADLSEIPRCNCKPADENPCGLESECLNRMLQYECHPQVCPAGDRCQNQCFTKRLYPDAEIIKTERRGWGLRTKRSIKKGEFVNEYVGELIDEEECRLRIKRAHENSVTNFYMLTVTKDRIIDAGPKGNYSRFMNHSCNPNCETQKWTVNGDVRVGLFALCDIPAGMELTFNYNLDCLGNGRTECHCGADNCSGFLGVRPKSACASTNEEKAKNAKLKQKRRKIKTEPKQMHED

MLL1 Complex = MLL1 Complex (Homo sapiens, UniProt Q03164); assay: as above; assay type: biochemical; parameters: gene KMT2A; five-member complex, His-tagged subunits, E. coli; ASH2L isoform of NM_001105214; with WD repeat-containing protein 5; Set1/Ash2 histone methyltransferase complex subunit ASH2; Protein dpy-30 homolog
ASH1L = ASH1L (Homo sapiens, UniProt Q9NR48); assay: as above; assay type: biochemical; parameters: residues 2046-2330, N-terminal His tag, E. coli
SET8 = target: T3, SET8 (Homo sapiens, UniProt Q9NQR1); assay: biochemical
T3 construct: gene KMT5A
T3 sequence (Q9NQR1 1-393): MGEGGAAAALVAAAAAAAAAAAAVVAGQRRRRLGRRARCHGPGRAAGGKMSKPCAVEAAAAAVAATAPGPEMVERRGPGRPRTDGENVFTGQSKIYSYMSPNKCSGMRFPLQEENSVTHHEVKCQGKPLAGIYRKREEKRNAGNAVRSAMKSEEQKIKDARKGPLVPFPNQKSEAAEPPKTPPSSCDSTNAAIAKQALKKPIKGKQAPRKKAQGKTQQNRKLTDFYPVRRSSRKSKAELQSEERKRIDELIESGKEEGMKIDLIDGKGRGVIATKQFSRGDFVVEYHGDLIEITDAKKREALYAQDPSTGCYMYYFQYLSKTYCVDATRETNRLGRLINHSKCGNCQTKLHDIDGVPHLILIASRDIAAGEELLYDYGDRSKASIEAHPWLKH

[1] = nucleosomes, […] SAM, pH […] MgCl2, […] DTT, […] °C, single experiment

Chain of MLL1 Complex (Q9UBL3 96-628): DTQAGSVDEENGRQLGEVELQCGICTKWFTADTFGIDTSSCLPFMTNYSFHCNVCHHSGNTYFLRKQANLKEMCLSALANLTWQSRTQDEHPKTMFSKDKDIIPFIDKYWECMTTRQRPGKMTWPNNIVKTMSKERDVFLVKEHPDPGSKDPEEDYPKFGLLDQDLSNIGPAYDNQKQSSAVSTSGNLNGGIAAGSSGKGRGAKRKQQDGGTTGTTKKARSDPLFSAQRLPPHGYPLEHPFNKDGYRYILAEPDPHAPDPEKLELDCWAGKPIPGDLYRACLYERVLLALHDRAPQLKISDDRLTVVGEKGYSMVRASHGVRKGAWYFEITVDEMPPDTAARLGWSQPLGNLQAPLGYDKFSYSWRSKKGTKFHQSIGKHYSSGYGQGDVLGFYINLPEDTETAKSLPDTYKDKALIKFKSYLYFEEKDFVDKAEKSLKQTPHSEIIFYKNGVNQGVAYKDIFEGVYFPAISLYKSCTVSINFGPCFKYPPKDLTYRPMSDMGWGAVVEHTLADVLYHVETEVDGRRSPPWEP
Chain of MLL1 Complex (Q03164 3745-3969): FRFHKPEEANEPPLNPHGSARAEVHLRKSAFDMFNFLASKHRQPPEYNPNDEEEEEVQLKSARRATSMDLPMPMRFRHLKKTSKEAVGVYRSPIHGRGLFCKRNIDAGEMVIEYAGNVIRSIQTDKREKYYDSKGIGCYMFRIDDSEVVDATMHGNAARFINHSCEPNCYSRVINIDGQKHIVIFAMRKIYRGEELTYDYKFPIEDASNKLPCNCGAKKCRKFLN
Chain of MLL1 Complex (Q9C005 whole entry, further chain, the tested form may be a part, canonical isoform): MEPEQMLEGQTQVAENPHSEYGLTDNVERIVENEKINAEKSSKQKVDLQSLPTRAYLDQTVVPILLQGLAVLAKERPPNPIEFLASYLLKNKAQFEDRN
Chain of MLL1 Complex (Q15291 whole entry, further chain, the tested form may be a part, canonical isoform): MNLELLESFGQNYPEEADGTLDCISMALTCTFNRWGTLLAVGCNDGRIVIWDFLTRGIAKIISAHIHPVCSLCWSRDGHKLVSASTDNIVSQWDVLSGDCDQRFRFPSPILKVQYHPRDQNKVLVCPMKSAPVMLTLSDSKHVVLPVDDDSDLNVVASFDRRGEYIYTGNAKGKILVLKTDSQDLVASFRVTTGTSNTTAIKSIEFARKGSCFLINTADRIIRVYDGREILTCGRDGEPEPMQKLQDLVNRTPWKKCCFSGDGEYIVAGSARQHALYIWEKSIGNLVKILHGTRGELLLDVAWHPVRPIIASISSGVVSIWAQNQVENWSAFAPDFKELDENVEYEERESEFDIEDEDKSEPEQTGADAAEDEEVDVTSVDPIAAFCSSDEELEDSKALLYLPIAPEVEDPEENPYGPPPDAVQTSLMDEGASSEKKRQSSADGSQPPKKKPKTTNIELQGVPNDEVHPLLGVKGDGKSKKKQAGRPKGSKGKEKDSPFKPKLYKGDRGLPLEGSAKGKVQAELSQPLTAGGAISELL

| IC50 (NSD2) | IC50 (NSD3) | IC50 (MLL1 Complex) | IC50 (ASH1L) | IC50 (SET8) | IC50 (NSD2; [1]) | IC50 (SET8; read-out: DA3003-1 IC50, inhibitor) | IC50 (MLL1 Complex; [1]) | IC50 (ASH1L; [1]) | SMILES |
| --- | --- | --- | --- | --- | --- | --- | --- | --- | --- |
| 2.3 µM | 1.3 µM | 0.72 µM | 3.3 µM | 5.3 µM |  |  |  |  | CC1(C)CCC(CN2CCN(c3ccc(C(=O)NS(=O)(=O)c4ccc(NCC5CCOCC5)c([N+](=O)[O-])c4)c(Oc4cnc5[nH]ccc5c4)c3)CC2)=C(c2ccc(Cl)cc2)C1 [ABT-199] |
|  | 0.26 µM | 0.25 µM | 0.2 µM |  | 0.17 µM | 4.4 µM |  |  | O=C1C(Cl)=C(NCCN2CCOCC2)C(=O)c2ncccc21 [DA3003-1] |
|  | 2.3 µM |  |  | 44 µM | 8 µM |  | 3.2 µM | 9.2 µM | COc1cccc(-n2nc(C(=O)O)cc2-c2ccc(C3CCCCC3)c(Cl)c2)c1 [TC LPA5 4] |
